According to PMC12613816, “Discovery of Novel Isoxazole-Based Small-Molecule Toll-Like Receptor 8 Antagonists” (Journal of Medicinal Chemistry, 2025):

Legend:
TLR8 [1] = target: T1, TLR8 (Homo sapiens, UniProt Q9NR97); assay: Inhibition of TL8-506-stimulated NF-κB activity (SEAP reporter, QuantiBlue) in hTLR8-HEK293 reporter cells; type: cell-based; parameters: host or cells: HEK293 (HEK-Blue hTLR8); conditions: for inhibition at 10 µM: read-out: % inhibition at 10 µM ± SEM (NF-κB activity); for IC50: read-out: IC50 [μM] (95% CI) hTLR8-HEK293, inhibition of NF-κB activity, 1 h preincubation
T1 sequence (Q9NR97 27-1041): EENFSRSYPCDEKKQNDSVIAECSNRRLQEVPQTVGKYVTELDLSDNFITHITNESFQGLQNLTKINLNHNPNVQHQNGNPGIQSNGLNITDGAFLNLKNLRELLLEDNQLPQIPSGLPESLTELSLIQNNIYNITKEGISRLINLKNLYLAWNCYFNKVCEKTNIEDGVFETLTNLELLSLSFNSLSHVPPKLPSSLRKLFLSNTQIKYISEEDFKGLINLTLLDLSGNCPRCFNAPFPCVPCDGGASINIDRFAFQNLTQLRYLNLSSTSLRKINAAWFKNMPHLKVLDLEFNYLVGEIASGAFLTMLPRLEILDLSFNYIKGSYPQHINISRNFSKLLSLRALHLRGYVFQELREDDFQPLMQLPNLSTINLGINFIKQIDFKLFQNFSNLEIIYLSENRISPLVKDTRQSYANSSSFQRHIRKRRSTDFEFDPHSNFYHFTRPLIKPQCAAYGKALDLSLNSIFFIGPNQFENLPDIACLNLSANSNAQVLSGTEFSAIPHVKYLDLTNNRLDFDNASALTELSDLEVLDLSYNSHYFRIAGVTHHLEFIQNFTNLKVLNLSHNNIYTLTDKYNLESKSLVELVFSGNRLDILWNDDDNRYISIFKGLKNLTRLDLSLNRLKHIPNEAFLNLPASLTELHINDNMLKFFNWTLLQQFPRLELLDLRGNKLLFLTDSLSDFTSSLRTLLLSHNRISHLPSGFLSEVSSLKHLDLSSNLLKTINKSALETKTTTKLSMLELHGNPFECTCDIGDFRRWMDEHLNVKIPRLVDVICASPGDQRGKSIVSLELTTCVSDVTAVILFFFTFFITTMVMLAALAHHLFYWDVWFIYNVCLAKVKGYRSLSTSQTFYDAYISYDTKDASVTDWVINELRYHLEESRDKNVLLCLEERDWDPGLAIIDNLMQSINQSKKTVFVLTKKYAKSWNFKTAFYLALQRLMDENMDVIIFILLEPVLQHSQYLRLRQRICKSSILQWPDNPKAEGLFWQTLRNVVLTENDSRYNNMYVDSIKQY

TLR8 [2] = target: T1, TLR8; conditions: TL8-506 alone
[3] = 10 µM compound, TL8-506 (0.6 μM) 24 h, hTLR8-HEK293

Row | Molecule | inhibition at 10 µM (TLR8 [1]; [3]) | IC50 (TLR8 [1]; TL8-506 (0.6 μM) 24 h) | other results
1 | COc1cc(C(=O)NC2CCN(C(C)C)CC2)ccc1OCc1c(C)noc1C [Compound 28, 4-((3,5-Dimethylisoxazol-4-yl)methoxy)-N-(1-isopropylpiperidin-4-yl)-3-methoxybenzamide] | 97 ± 1% | 1.73 µM | –
2 | COc1cc(C(=O)NCC2CCN(C)C2)ccc1OCc1c(C)noc1C (stereo not shown) [Compound 32, 4-((3,5-Dimethylisoxazol-4-yl)methoxy)-3-methoxy-N-((1-methylpyrrolidin-3-yl)methyl)benzamide] | 77 ± 5% | – | –
3 | COc1cc(C(=O)N2CCN(Cc3ccccc3)CC2)ccc1OCc1c(C)noc1C [Compound 22, (4-Benzylpiperazin-1-yl)(4-((3,5-dimethylisoxazol-4-yl)methoxy)-3-methoxyphenyl)methanone] | 54 ± 3% | – | inhibition of NF-κB at 10 μM (in words) (TLR8 [1]; hTLR8-HEK293): moderate
4 | CCN1CCC(CNC(=O)c2cccc(OCc3c(C)noc3C)c2)CC1 [Compound 8] | 20 ± 4% | – | –
5 | COc1cc(C(=O)NC2CCN(C)CC2)ccc1OCc1c(C)noc1C [Compound 33, 4-((3,5-Dimethylisoxazol-4-yl)methoxy)-3-methoxy-N-(1-methylpiperidin-4-yl)benzamide] | 94 ± 2% | – | –
6 | CCCN1CCC(NC(=O)c2ccc(OCc3c(C)noc3C)c(OC)c2)CC1 [Compound 31, 4-((3,5-Dimethylisoxazol-4-yl)methoxy)-3-methoxy-N-(1-propylpiperidin-4-yl)benzamide] | 98 ± 0.3% | 1.66 µM | –
7 | COc1cc(C(=O)N2CCC(N3CCCC3)CC2)ccc1OCc1c(C)noc1C [Compound 24, (4-((3,5-Dimethylisoxazol-4-yl)methoxy)-3-methoxyphenyl)(4-(pyrrolidin-1-yl)piperidin-1-yl)methanone] | 96 ± 2% | 3.46 µM | –
8 | Cc1noc(C)c1COc1cccc(C(=O)N2CCN(C)CC2C)c1 (stereo not shown) [Compound 3] | -6 ± 2% | – | –
9 | (4-((3,5-Dimethylisoxazol-4-yl)methoxy)-3-methoxyphenyl)(5-methylhexahydropyrrolo[3,4-c]pyrrol-2(1H)-yl)methanone [Compound 25] | – | – | % inhibition at 10 µM ± SEM (NF-κB activity) (TLR8 [1]; [3]): 68 ± 6%
10 | Cc1noc(C)c1COc1ccc(C(=O)N2CCN(CCO)CC2)cc1 [Compound 36, (4-((3,5-Dimethylisoxazol-4-yl)methoxy)phenyl)(4-(2-hydroxyethyl)piperazin-1-yl)methanone] | 26 ± 2% | – | inhibition of NF-κB at 10 μM (in words) (TLR8 [1]; hTLR8-HEK293): low inhibition
11 | C=CCN1CCC(NC(=O)c2ccc(OCc3c(C)noc3C)cc2)CC1 [Compound 41, N-(1-Allylpiperidin-4-yl)-4-((3,5-dimethylisoxazol-4-yl)methoxy)benzamide] | 99 ± 0.7% | 0.5 µM | –
12 | COc1cc(C(=O)NCCN2CCCC2)ccc1OCc1c(C)noc1C [Compound 11] | – | 6.62 µM | –
13 | Cc1noc(C)c1COc1ccc(C(=O)NCC2CCN(C)C2)cc1 (stereo not shown) [Compound 37, 4-((3,5-Dimethylisoxazol-4-yl)methoxy)-N-((1-methylpyrrolidin-3-yl)methyl)benzamide] | 80 ± 2% | – | –
14 | Cc1noc(C)c1COc1ccc(C(=O)NC2CCN(C)CC2)cc1 [Compound 34, 4-((3,5-Dimethylisoxazol-4-yl)methoxy)-N-(1-methylpiperidin-4-yl)benzamide] | 97 ± 0.9% | 1.68 µM | –
15 | CCN1CCC(NC(=O)c2ccc(OCc3c(C)noc3C)c(OC)c2)C1 (stereo not shown) [Compound 29, 4-((3,5-Dimethylisoxazol-4-yl)methoxy)-N-(1-ethylpyrrolidin-3-yl)-3-methoxybenzamide] | 72 ± 5% | – | –
16 | Cc1noc(C)c1COc1cccc(C(=O)N2CCCN(Cc3ccc(C(F)(F)F)cc3)CC2)c1 [Compound 7] | 5 ± 7% | – | –
17 | COc1cc(C(=O)N2CCC(N3CCCCC3)CC2)ccc1OCc1c(C)noc1C [Compound 26, [1,4′-Bipiperidin]-1′-yl(4-((3,5-dimethylisoxazol-4-yl)methoxy)-3-methoxyphenyl)methanone] | 77 ± 4% | 18.3 µM | –

Row | Molecule | inhibition at 10 µM (TLR8 [1]; [3]) | IC50 (TLR8 [1]; TL8-506 (0.6 μM) 24 h) | other results
18 | COc1cc(C(=O)N2CCN(CCO)CC2)ccc1OCc1c(C)noc1C [Compound 30, (4-((3,5-Dimethylisoxazol-4-yl)methoxy)-3-methoxyphenyl)(4-(2-hydroxyethyl)piperazin-1-yl)methanone] | 24 ± 9% | – | inhibition of NF-κB at 10 μM (in words) (TLR8 [1]; hTLR8-HEK293): low inhibition
19 | COc1cc(C(=O)NC2CCN(C)C2)ccc1OCc1c(C)noc1C (stereo not shown) [Compound 27, 4-((3,5-Dimethylisoxazol-4-yl)methoxy)-3-methoxy-N-(1-methylpyrrolidin-3-yl)benzamide] | 84 ± 4% | 8.15 µM | –
20 | CCN1CCC(NC(=O)c2ccc(OCc3c(C)noc3C)cc2)CC1 [Compound 39, 4-((3,5-Dimethylisoxazol-4-yl)methoxy)-N-(1-ethylpiperidin-4-yl)benzamide] | 100 ± 0.2% | 1.1 µM | –
21 | CCCN1CCC(NC(=O)c2ccc(OCc3c(C)noc3C)cc2)CC1 [Compound 38, 4-((3,5-Dimethylisoxazol-4-yl)methoxy)-N-(1-propylpiperidin-4-yl)benzamide] | 100 ± 0.1% | 0.78 µM | –
22 | Cc1noc(C)c1COc1ccc(C(=O)N2CCN(Cc3ccccc3)CC2)cc1 [Compound 17, 4-Benzylpiperazin-1-yl(4-((3,5-Dimethylisoxazol-4-yl)methoxy)phenyl)methanone] | 52 ± 4% | – | inhibition of NF-κB at 10 μM (in words) (TLR8 [1]; hTLR8-HEK293): moderate
23 | Cc1noc(C)c1COc1ccc(C(=O)NC2CCN(C(C)C)CC2)cc1 [Compound 35, 4-((3,5-Dimethylisoxazol-4-yl)methoxy)-N-(1-isopropylpiperidin-4-yl)benzamide] | 99 ± 0.2% | 0.99 µM | –
24 | Cc1noc(C)c1COc1ccc(C(=O)NN2CCN(C)CC2)cc1 [Compound 20, 4-((3,5-Dimethylisoxazol-4-yl)methoxy)-N-(4-methylpiperazin-1-yl)benzamide] | 63 ± 0.7% | – | –
25 | CCCCN1CCC(NC(=O)c2ccc(OCc3c(C)noc3C)cc2)CC1 [Compound 40, N-(1-Butylpiperidin-4-yl)-4-((3,5-dimethylisoxazol-4-yl)methoxy)benzamide] | 99 ± 0.4% | 0.73 µM | –
26 | Cc1noc(C)c1COc1ccc(C(=O)NC2CCNCC2)cc1 [Compound 43, 4-((3,5-Dimethylisoxazol-4-yl)methoxy)-N-(piperidin-4-yl)benzamide] | 32% | – | –
27 | Cc1noc(C)c1COc1ccc(C(=O)NCC(c2c(F)cccc2Cl)N(C)C)cc1 (stereo not shown) [Compound 5] | 37 ± 7% | – | –
28 | Cc1noc(C)c1COc1cccc(C(=O)NCCN(C(C)C)C(C)C)c1 [Compound 6] | 9 ± 4% | – | –
29 | Cc1noc(C)c1COc1cccc(C(=O)N2CCCC(C)C2CN)c1 (stereo not shown) [Compound 2] | 3 ± 2% | – | –
30 | Cc1noc(C)c1COc1ccc(C(=O)N2CCC(N3CCCC3)CC2)cc1 [Compound 21, (4-((3,5-Dimethylisoxazol-4-yl)methoxy)phenyl)(4-(pyrrolidin-1-yl)piperidin-1-yl)methanone] | 75 ± 2% | – | –
31 | CCOC(=O)C1=Cc2ccc(-c3cccc(C#N)c3)cc2N=C(N)C1 [TL8-506] | – | – | ECmax [%] (95% CI) of TL8-506 (TLR8 [2]): 97.6 (92.9-104.7) %; EC50 (TLR8 [2]; read-out: EC50 [µM] (95% CI) of TL8-506): 0.19 µM
32 | Cc1noc(C)c1COc1ccc(C(=O)NC2CCN(C)C2)cc1 (stereo not shown) [Compound 19, 4-((3,5-Dimethylisoxazol-4-yl)methoxy)-N-(1-methylpyrrolidin-3-yl)benzamide] | 89 ± 2% | 3.06 µM | –
33 | Cc1noc(C)c1COc1ccc(C(=O)NCCN2CCCC2)cc1 [Compound 18, 4-((3,5-Dimethylisoxazol-4-yl)methoxy)-N-(2-(pyrrolidin-1-yl)ethyl)benzamide] | 61 ± 3% | – | –
34 | COc1cc(C(=O)NN2CCN(C)CC2)ccc1OCc1c(C)noc1C [Compound 23, 4-((3,5-Dimethylisoxazol-4-yl)methoxy)-3-methoxy-N-(4-methylpiperazin-1-yl)benzamide] | 57 ± 3% | – | inhibition of NF-κB at 10 μM (in words) (TLR8 [1]; hTLR8-HEK293): moderate
